Data set [1] addresses mushroom tyrosinase (DOPA oxidase activity) (Agaricus bisporus, UniProt C7FF04). Description: DOPA oxidase inhibiting activity by spectrophotometry (mushroom tyrosinase assay). To be noted: FIG. 12. It is filed as biochemical. The procedure:
(§1) Mushroom (Agaricus bisporus) tyrosinase (SIGMA-ALDRICH, T3824) has both DHICA oxidase and DOPA oxidase activity ([…] et al, Pigment Cell Res., vol. 12(2), p: 118-25, 1999).
The effect of different spider venoms on the DOPA oxidase activity was measured spectrophotometrically. The DOPA oxidase activity was determined using L-DOPA as substrate at 0.2 mM. The amount of DOPA chrome (red pigment) formed was measured against blank at 475 nm. The percentage of DOPA oxidase inhibition was obtained from: Inhibition percentage=[…]
With: • A: Absorbance at 475 nm of the reaction medium+inhibitor sample solution with enzyme • B: Absorbance at 475 nm of the reaction medium+inhibitor sample solution without enzyme (blank) • C: Absorbance at 475 nm of the reaction medium enzyme without inhibitor sample solution • D: Absorbance at 475 nm of the reaction medium without both enzyme and inhibitor sample solution […]
For the DOPA activity assay: 500 μL of the L-DOPA solution at 0.4 mM is mixed with different volumes according to the different natural inhibitors at 10 mg/mL, and 5 μL of the mushroom tyrosinase solution (added last to initiate the enzymatic reaction and must be kept in ice). […] The absorbance is measured at 475 nm every minute for 15 min using a UV-VIS spectrophotometer BIOMATE 5®. […]

Data set [2] relates to B16F10 cells. The data set is described as follows: Measurement of melanin content in B16F10 melanoma cells (melanogenesis assay). It is filed as cell-based, murine. To be noted: for IC50: read-out: IC50 melanogenesis (melanin released in the medium). The procedure:
(§2) B16F10 were obtained from the American Type Culture Collection (ATCC CRL-6475, Manassas, Va., USA). Cells were cultured in Dulbecco's Modified Eagle Medium (DMEM) supplemented by 10% heat-inactivated foetal bovine serum (FBS, LONZA ltd., Basel, Switzerland) and penicillin/streptomycin (50 μg/ml) in a humidified atmosphere containing 5% CO2 at 37° C.
Determination of the extracellular melanin is considered as an index of melanogenesis. B16F10 cells were cultured in 24-well plate (5.10^4 cells/well) in a phenol red free medium and stimulated with 100 nM of α-MSH. […] To quantify the amount of melanin released in the medium, the absorbance of 200 μl of supernatant was read at 405 nm. The values were normalized by the measurement of total protein level present in each well.
Cells were washed with PBS1X and dissolved in 200 μl of NaOH 1N for 1 h at 60° C. The lysate was then centrifuged and the protein content determined by the Folin Lowry method, using the DC protein Assay kit from BIO-RAD (Marnes-la-Coquette, France). The absorbance is read at […].
B16F10 are murine melanoma cells, a cell line able to produce melanin and considered as an accurate model to assess melanogenesis inhibition. Cells were seeded at 5.10^4 cells/well in a P24 well plate and stimulated by 100 nM of α-MSH, the melanin-stimulating hormone. […] 48 h later, according to […] & EBERLE (Analytical Biochemistry, vol. 159(1), p: 191-7, 1986), the amount of melanin released in the medium was spectrophotometrically measured at 405 nm and normalised to the protein content.

The test system of data set [3] is TRP1. The data set is described as follows: Western blot analysis of TRP1 expression. It is filed as cell-based, murine. To be noted: α-MSH stimulated B16F10 cells, FIG. 16. The protocol:
Cells were seeded at 1.10^6 cells/dish and cultivated in n-dish as previously described. After trypsination, the pelled were homogenized in a solution containing Sodium Dodecyl Sulphate (SDS) and were boiled 5 min at 96° C. to denature the proteins. Protein extracts were separated via a 10% SDS-PAGE for 1 h at 200 V and transferred onto a polyvinylidene difluoride membrane (GE healthcare Europe, Vélizy-villacoublay, France). The membranes were blocked overnight with 5% non-fat skim milk in a Tris-buffered saline solution containing 0.1% Tween. Membranes were incubated for 1 h at 37° C. with specific antibody against tyrosinase, TRP1 or MITF (C-19; G-17; N-15, 1:200 for Tyrosinase and TRP1 and 1:100 for MITF, Santa Cruz, Heidelberg, Germany) and actin as a control (C-11, 1:200, Santa Cruz). Membranes were incubated with secondary antibody coupled to horseradish peroxidase (HRP) for 2 h at room temperature (anti-goat 1:2500 for tyrosinase, TRP1 and MITF (ab 97120, Abcam, Paris, France) and anti-rabbit 1:2500 for actin (NA 934V, GE Healthcare)). […] Pre-stained protein markers were used for molecular weight.
To explore the mechanism of action of Argiotoxin in melanogenesis processes, we assess its ability to regulate the protein expression of two enzymes, the tyrosinase and TRP1 which is implicated in the biosynthesis of black/brown pigments specifically. […]

The subject of data set [4] is B16F10 cells. Description: Cell viability assay (MTT). The data set is classed as cell-based, murine. To be noted: 42.1 μM. The protocol: as §2
The evaluation of B16F10 cells survival relies on the reduction of the tetrazolium ring of water soluble MTT (3-[4,5-dimethylthiazol-2-yl]-2,5-diphenyltetrazolium bromide; Sigma Aldrich) into insoluble purple formazan crystals by the mitochondrial succinate dehydrogenase enzyme. The production of formazan directly reflects the number of living […] cells. B16F10 cells were seeded at 25000 per well in a 96-well plate and incubated in standard culture condition. […] Then, the supernatant was removed and replace by 50 μl of 0.5 mg/ml of MTT solution. The cells were exposed to MTT for 2 h. Finally, each well was washed by PBS1X and the crystals contained in wells are solubilized by adding 100 μl of DMSO. After briefly shaked the plate, the absorbance is measured at 600 nm.

The test system of data set [5] is tyrosinase. The data set is classed as cell-based, murine. To be noted: α-MSH stimulated B16F10 cells, FIG. 16.
Method: Western blot analyses were performed on B16F10 cells treated as previously described.
Data set [6] has as its system mushroom tyrosinase (DHICA oxidase activity). The data set is described as follows: DHICA oxidase-inhibiting activity by MBTH assay. The data set is classed as biochemical, Agaricus bisporus. To be noted: DHICA substrate 0.25 mM. The protocol:
as §1
DHICA is used as substrate at 0.25 mM. MBTH was obtained from Alfa Aesar and DHICA was prepared according to […] & ITO, (Anal. Biochem., vol. 170(2), p: 335-40, 1988). Here, the MBTH method was used. This method consists to visualize the production of hydrazone-quinone adduct by spectrophotometry. The principle is that MBTH captures the indole-quinone which was generated by the oxidation of dihydroxyindole compounds. DHICA is converted to indole-5,6-quinone-2-carboxylic acid by the DHICA oxidase activity of mushroom tyrosinase, the indole product is trapped by MBTH and the complex formation can be detected at 492 nm (OLIVARES et al, Biochem. J., vol. 354, p: 131-139, 2001). • c) The DHICA oxidase inhibiting activity using mushroom tyrosinase was assayed in vitro. The procedure is the same as described by WINDER & HARRIS (Eur. J. Biochem., vol. 198(2), p: 317-26, 1991) for DOPA oxidase with minor modifications. Purification of the fractions
The experimental conditions are the same as previously mentioned. DHICA was used as substrate at 0.25 mM.

The test system of data set [7] is B16F10 cells. The data set is described as follows: LDH cell-based assay (cytotoxicity). Also noted: species or system murine. To be noted: 42.1 μM.

“Also recorded” adds a separate entry of the source. Where two headings read alike, the source gives them in different places.

Sequence of mushroom tyrosinase (DOPA oxidase activity) (C7FF04 1-392): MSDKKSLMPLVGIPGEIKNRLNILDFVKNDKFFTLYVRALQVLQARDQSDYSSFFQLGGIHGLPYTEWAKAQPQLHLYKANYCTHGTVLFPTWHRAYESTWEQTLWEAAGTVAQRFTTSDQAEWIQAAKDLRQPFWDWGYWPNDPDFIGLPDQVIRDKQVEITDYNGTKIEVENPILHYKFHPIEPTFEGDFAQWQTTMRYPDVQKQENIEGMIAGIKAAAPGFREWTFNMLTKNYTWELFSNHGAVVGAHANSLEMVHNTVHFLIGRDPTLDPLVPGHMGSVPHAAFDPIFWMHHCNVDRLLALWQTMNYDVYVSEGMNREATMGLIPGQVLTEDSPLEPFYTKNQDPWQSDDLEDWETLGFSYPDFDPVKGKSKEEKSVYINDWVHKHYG
Sequence of mushroom tyrosinase (DOPA oxidase activity) (G1K3P4 1-150 partner): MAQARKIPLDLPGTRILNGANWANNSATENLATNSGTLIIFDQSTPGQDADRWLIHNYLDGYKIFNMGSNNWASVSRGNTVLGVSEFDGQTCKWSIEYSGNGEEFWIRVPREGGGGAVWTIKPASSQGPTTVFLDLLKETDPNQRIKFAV

By IC50 is commonly meant the midpoint of a concentration-inhibition curve. For `O=C(O)Cc1ccc(O)cc1O` [2,4-DHPAA], the IC50 in data set [1] is roughly 6000 µM; in data set [2] (B16F10, 100 nM α-MSH, 48 h treatment), roughly 5 µM. Further, the “type of inhibition of DOPA oxidase activity” value in data set [1] (suggested from dose-response) is on record as “competitive inhibitor”.
Regarding `N=C(N)NCCC[C@H](N)C(=O)NCCCNCCCNCCCCCNC(=O)[C@H](CC(N)=O)NC(=O)Cc1ccc(O)cc1O` [Argiotoxin, Argiotoxin-636], the “fold higher activity on the cellular assay compared with DHPA” value in data set [2] (B16F10 melanogenesis) is 100 fold. Also, in data set [2] (Mus musculus, B16-F10, 48 h), the 50% inhibitory concentration (IC50) is roughly 0.01 µM. Also, the “expression of TRP1 protein” value in data set [3] is “significant inhibition”. In addition, the “cell death (MTT)” value in data set [4] is “neither cell death nor cytotoxicity”. The “expression of tyrosinase protein” value in data set [5] was “significant inhibition”. Further, the “inhibition of DHICA oxidase activity” value in data set [6] is given as “dose-dependent inhibition is visible up to 100 μM; also recorded: dose-dependent manner up to 75 μM”. In data set [7], the “cytotoxicity (LDH)” value is “neither cell death nor cytotoxicity”.
Take `O=c1cc(CO)occ1O` [Kojic acid, Kojic Acid, reference compound]: in data set [2] (Mus musculus, B16-F10, B16F10, 100 nM α-MSH, 48 h treatment), the concentration for half-maximal inhibition (IC50) is roughly 5 µM. In addition, the “expression of TRP1 protein” value in data set [3] is listed as “faintly decreases”.

The values are drawn from patent US10064814B2, “Use of spider venoms for skin whitening/depigmenting and composition comprising spider venoms molecules or synthetic analogs” (priority 2012, dated 2018).
